# Source: US7939542B2, “Cinnamaldehyde derivatives having improved solubility in water, a method for preparing the same and a pharmaceutical composition comprising the same” (Korea Research Institute of Bioscience and Biotechnology, priority 2008, dated 2011)
# Assays:
# [1] = Body weight change in tumor-xenografted nude mice; details: positive control 2 mg/kg, 18 days, p<0.001
# Method: Nude mice were divided into three groups: a compound administration group, a vehicle control group and a positive control group. A 0.3-ml aliquot of human colon carcinoma HT-29 cells (3×10^7 cells/ml) was injected subcutaneously into the right axilla between the scapular region and the chest wall of mice. From the day (Day 1) after tumor transplantation to the day before sacrifice, the compound of Chemical Formula 6 was administered orally at a dose of 10 mg/kg once every day.
# In order to investigate the clinical signs of drug toxicity, animals were monitored for change in body weight about three times a week during the test period.
# [2] = Solubility (physicochemical properties); details: for Solubility: Insoluble: solvents in which the compound is insoluble; for Solubility: Soluble: solvents in which the compound is soluble
# [3] = system: human colon carcinoma SW620 cells; experiment: Cell cycle analysis by flow cytometry (PI staining); type: cell-based; details: 48 hours
# Method: In practice, when human colon carcinoma SW620 cells are dosed with 10 to 20 μM of the compound of Chemical Formula 1, the compound induces a cell cycle arrest in the G2/M phase, leading to cell growth inhibition. The inhibition of the growth of cancer cells may be tested as follows. In brief, human colon carcinoma SW620 cells were dosed with the compound dissolved in DMSO. After 48 hrs, nuclear DNA was stained with propidium iodide. The stained cells were analyzed to determine the cell cycle using a FACSCalibur cytometer (Becton-Dickinson, San Jose, Calif., USA). The proportions of cells in G1, S and G2/M phases were determined using a Becton-Dickinson Modifit cell-cycle analysis program and expressed as percentages.
# For flow cytometric analysis, human colon carcinoma SW620 cells were plated in T25 flasks (containing 7.5 ml of culture medium) and cultured in RPMI 1640 and DMEM media, each of which was supplemented with 10% FBS, in an incubator at 37° C. for 12 hrs. Then, as a control, DMSO was added to the culture medium at a final concentration of 0.1% (7.5 μl). As compound treatment groups, 7.5 μl of each of compounds dissolved in DMSO at various concentrations was added to the culture medium. After 48 hours, control (DMSO) and compound-treated cells were harvested and subjected to flow cytometric analysis.
# After the culture media were removed from flasks, cells were trypsinized and centrifuged at 300 g for 5 min. The collected cells were washed with phosphate buffer twice to remove culture media. The cells were then fixed in 3 ml of 70% ethanol at −20° C. for 12 hrs. The fixed cells were centrifuged at 300 g for 5 min and washed with cold PBS twice to remove remaining ethanol. The washed cells were resuspended in 500 μl of PBS, and treated with 50 μl of 100 μg/ml RNase A at 37° C. for 30 min. Then, cells were incubated in 10 μl of 1 mg/ml propidium iodide (PI) in PBS for DNA staining. The cell cycles of 20,000 stained cells were analyzed using a FACSCalibur cytometer (Becton-Dickinson, San Jose, Calif., USA). Cell cycle fractions were quantified using a Becton-Dickinson Modifit cell-cycle analysis program, and the distribution of cells in G1, S and G2/M phases was expressed as percentages.
# [4] = system: human colon carcinoma HT-29 cells; experiment: Anticancer activity upon oral administration to tumor-xenografted nude mice; type: in vivo; details: HT-29 xenograft, 10 mg/kg orally once every day, Day 18, p<0.001
# Method: Tumor diameter was measured in three planes with a vernier caliper. Tumor volume (V) was calculated using the following Equation 1. Tumor volume=(Length×Width×Height)/2 [Equation 1]
# On Day 18 of tumor transplantation, animals were sacrificed, and tumors were excised and weighed.
Structure (SMILES),weight loss [1],Solubility: Insoluble [2],Solubility: Soluble [2],"Cell distribution (%) G0-G1 ([3]; SW620, 30 μM)","Cell distribution (%) G2-M ([3]; SW620, 30 μM)","Cell distribution (%) S ([3]; SW620, 30 μM)",Water solubility [2],"Cell distribution (%) G0-G1 ([3]; SW620, 20 μM)","Cell distribution (%) G2-M ([3]; SW620, 20 μM)","Cell distribution (%) S ([3]; SW620, 20 μM)","Cell distribution (%) G0-G1 ([3]; SW620, 40 μM)","Cell distribution (%) G2-M ([3]; SW620, 40 μM)","Cell distribution (%) S ([3]; SW620, 40 μM)",tumor growth inhibitory effect [4]
COc1cccc2c1C(=O)c1c(O)c3c(c(O)c1C2=O)C[C@@](O)(C(=O)CO)C[C@@H]3O[C@H]1C[C@H](N)[C@H](O)[C@H](C)O1 [adriamycin],10.3%,,,,,,,,,,,,,
CN1CCN(C(=O)Oc2ccccc2/C=C/C=O)CC1 [Compound of Formula 4],,"Hexane, H2O","Alcohol, DMSO",37.50%,45.49%,17.01%,,,,,,,,
CN1CCN(C(=O)Oc2ccccc2/C=C/C=O)CC1.Cl [Compound of Formula 7],,"Hexane, acetone","Alcohol, H2O",35.11%,47.83%,17.06%,,,,,,,,
O=C/C=C/c1ccccc1OS(=O)(=O)c1ccccc1 [Compound of Formula 5],,Hexane,"Alcohol, DMSO",,,,600 µM,36.01%,45.94%,18.05%,,,,
Cl.O=C/C=C/c1ccccc1OCc1ccncc1 [Compound of Formula 6],,"Hexane, acetone","Alcohol, H2O",,,,,39.80%,33.63%,26.57%,43.85%,41.31%,14.84%,30.7%
COCC(=O)Oc1ccccc1/C=C/C=O [Compound of Formula 2],,Hexane,"Alcohol, DMSO",,,,320 µM,33.00%,49.94%,17.06%,,,,
O=C/C=C/c1ccccc1OCc1ccncc1 [Compound of Formula 3],,"Hexane, H2O","Alcohol, DMSO",,,,,39.80%,33.63%,26.57%,,,,
